Results on ten compounds are retold here after US20090076067A1, “PHARMACEUTICAL COMPOSITION COMPRISING AZARHODACYANINE COMPOUND AS ACTIVE INGREDIENT” (priority 2005, published 2009).

A word on the EC50: it is the midpoint of the concentration-response curve.

Like-named read-outs stand apart in the source and are kept apart here. Bounds are passed on as bounds.

What all share (format): cell-based
In data set [1] the test system is Plasmodium Falciparum k1 strain. As to the kind of experiment: Chloroquine-resistant tropical malaria protozoa proliferation inhibition screening test. The conditions noted are these: for Selective toxicity: EC50 rat L6 cells / EC50 Chloroquine-resistant malaria protozoa; for EC50: Plasmodium falciparum. The method, boiled down: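 Infected erythrocytes (0.15% initial infection, 2.5% hematocrit) in RPMI-1640 with 5% human serum were cultured 48 h at 37 °C under 3% O2/4% CO2 with compound, then 24 h with 0.5 μCi [3H]hypoxanthine.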

Data set [2] can be described thus: Rat L6 cell proliferation inhibition test. The note with it: read-out: EC50 cytotoxicity L6; for EC50 at 72 h: L6 cells (rat skeletal myoblasts), Table 1, Alamar Blue. Background: Resazurin is reduced to fluorescent resorufin, in cell work by metabolically active cells.
The subject of data set [3] is Trypanosoma brucei rhodensiense (STIB 900 strain). Briefly: African trypanosoma protozoa proliferation inhibition screening test. The conditions noted are these: for Selective toxicity: EC50 rat L6 cells / EC50 African trypanosoma protozoa; for EC50: Trypanosoma brucei, STIB900, read-out: EC50 Trypanosoma brucei rhod.; for EC50 / EC50 Trypanosoma brucei rhod.: STIB 900 bloodstream form, 72 hours, Alamar blue. As for the experimental part:
In this experiment, bloodstream form trypomastigote of Trypanosoma brucei rhodensiense (STIB 900 strain) was used. The medium used in the experiment was prepared as follows: to filter-sterilized MEM medium, 25 mM N-2-hydroxyethylpiperazine-2-ethane sulfonate (HEPES), 1 g/L glucose, 1% MEM nonessential amino acid, 0.2 mM 2-mercaptoethanol, 2 mM pyruvic calcium salt, 0.1 mM hypoxanthine, and 15% heat-treated horse serum were added. The protozoa was cultured under atmosphere of CO2 concentration 5% and temperature 37° C.
Either the compound of the invention or a positive control (melarsoprol) was dissolved into dimethylsulfoxide (DMSO) to prepare test solution having predefined concentration. To each well in a 96-well culture plate, medium containing 8×10^3 protozoa, and either test solution containing the test compound at predefined concentration or DMSO without compound was added. Then medium was added to achieve 100 μL. The test solution was duplicated.
The culture plate was cultured in an incubator for 72 hours, and the proliferation inhibition activity was examined. The activity was determined as follows. To each well, 10 μL Alamar blue water solution was added, then the plate was again cultured for 2 hours. Then the culture plate was mounted on a fluorescence microplate reader (Spectramax Gemeni XS; Molecular Devices Corporation, U.S.), and irradiated with 536 nm excitation wavelength to determine fluorescence at 588 nm. The trypanosoma infection rate of the sample containing the test composition and that of the control sample was calculated.
(§1) Using the protozoa infection rate thus obtained, the proliferation inhibition rate was calculated according to the following equation to determine 50% proliferation inhibition concentration (EC50).
(§2) Proliferation inhibition rate(%)={1−(b−a)/(c−a)}×100
a: initial infection rate b: infection rate of the test compound solution c: infection rate of the control

For data set [4], the system named is Leishmania donovani (MHOM/ET/67/L82 strain). As to the kind of experiment: Leishmania protozoa proliferation inhibition screening test. The conditions noted are these: for Selective toxicity: EC50 rat L6 cells / EC50 leishmania protozoa; for EC50: Leishmania donovani, read-out: EC50 Leishmania donovani. As for the experimental part: In this experiment, Leishmania donovani (MHOM/ET/67/L82 strain) was used. The protozoa were successively cultured in Syrian Golden hamsters to obtain amastigote. The medium used in the experiment was SM medium having heat-treated fetal bovine serum 10% added, and pH prepared to 5.4. The culture was conducted under CO2 concentration 5% and temperature 37° C.
Either the compound of the invention or a positive control (miltefosine) was dissolved into DMSO to prepare test solution having predefined concentration. To each well of a 96-well culture plate, medium containing predetermined number of protozoa was added and the culture was pre-treated. The concentration of amastigote was determined by CASY cell analyze system (Scharfe GMBH Co., Germany). Subsequently, either test solution containing compound of the invention in predefined concentration or DMSO without compound was added. The test solution was duplicated.
The plate was cultured in an incubator for 72 hours, and the proliferation inhibition activity was examined. The activity was determined as follows. To each well, 10 μL Alamar blue aqueous solution was added, then cultured again for 2 hours. Then the culture plate was mounted on a fluorescence microplate reader (Spectramax Gemeni XS; Molecular Devices Corporation, U.S), and irradiated 536 nm excitation wavelength to determine […] at 588 nm. The leishmania infection rate of the sample containing the test compound and that of the control sample was calculated.
as §1, §2
a: initial infection rate b: infection rate of test compound solution c: infection rate of the control

Where [5] appears, read: chloroquine-resistant K1 strain, 3H-hypoxanthine uptake, read-out: EC50 P. falciparum K1.
[6] abbreviates: amastigote, 72 hours, Alamar blue.
The mark [7] stands for this setting: chloroquine-resistant K1 strain, 3H-hypoxanthine uptake.

With `CCN1C(=O)/C(=C2\C=Cc3ccccc3N2C)S/C1=N\c1sc2cc(Cl)ccc2[n+]1C` [Compound A-2], the Selective toxicity came to 2500 in data set [1], 72 in data set [3] and 2800 in data set [4]. Besides, the EC50 was 0.0022 µg/mL in data set [1] (setting [5]), 0.076 µg/mL in data set [3] and 0.002 µg/mL in data set [4] (setting [6]). Further, the EC50 at 72 h in data set [2] was 5.5 µg/mL.
Turning to `CCN1C(=O)/C(=c2/s/c(=C3/C=CC=CN3C)c(=O)n2CC)S/C1=N\c1sc2cc(Cl)ccc2[n+]1C` [Compound B-2], the results for the Selective toxicity in data set [1] and in data set [3] were 4495 and 258, respectively. The figures for the EC50 in data set [1] (setting [5]), in data set [3] and in data set [4] (setting [6]) were 0.006 µg/mL, 0.104 µg/mL and 0.249 µg/mL, respectively. The EC50 at 72 h in data set [2] came to 27 µg/mL.
For `CCN1C(=O)/C(=c2/s/c(=C3/SCCN3C)c(=O)n2CC)S/C1=N\c1sc2cc(OC)ccc2[n+]1C` [Compound B-29], in data set [1] (setting [7]), the “EC50 P. falciparum K1” value is 0.006 µg/mL. The “EC50 Trypanosoma brucei rhod.” value in data set [3] was 0.023 µg/mL. In addition, the “EC50 Leishmania donovani” value in data set [4] (setting [6]) is greater than 0.04 µg/mL.
`CN1/C(=c2\s/c(=C\c3cccc[n+]3CCC(=O)O)n(CC3CO3)c2=O)Sc2ccccc21` (stereo not drawn) [Compound S-3, reference compound]: the results for the Selective toxicity in data set [1], in data set [3] and in data set [4] were greater than 320, greater than 15 and greater than 170, respectively. For the same compound, the concentration giving a half-maximal response (EC50) in data set [1] (K1, read-out: EC50 P. falciparum K1) is 0.28 µg/mL; in data set [2] (Table 1, rat L6 cells, 72 hours, Alamar Blue) it was greater than 90 µg/mL; in data set [3] it was 6.1 µg/mL; in data set [4] (72 h), 0.53 µg/mL.
As for `CCN1C(=O)/C(=c2/s/c(=C3/SCCN3C)c(=O)n2CC)S/C1=N\c1sc2cc(F)ccc2[n+]1C` [Compound B-33], the “EC50 P. falciparum K1” value in data set [1] (setting [7]) stood at 0.0167 µg/mL. Besides, the “EC50 Trypanosoma brucei rhod.” value in data set [3] worked out at 0.1485 µg/mL. In data set [4] (setting [6]), the “EC50 Leishmania donovani” value turned out to be 0.2015 µg/mL.
`CCN1C(=O)/C(=c2/s/c(=C3/SCCN3C)c(=O)n2CC)S/C1=N\c1sc2cc(Cl)ccc2[n+]1C` [Compound B-12]: the Selective toxicity in data set [1] is reported as 507; in data set [3], 50; in data set [4] it was 41. Moreover, the values for the EC50 in data set [1] (setting [5]), in data set [3] and in data set [4] (setting [6]) were 0.0136 µg/mL, 0.138 µg/mL and 0.167 µg/mL, respectively. Besides, in data set [2], the EC50 at 72 h was 6.9 µg/mL.
For the compound `CCN1C(=O)/C(=c2/s/c(=C3/C=CC=CN3C)c(=O)n2CC)S/C1=N\c1sc2cc(OC)ccc2[n+]1C` [Compound B-28], the “EC50 P. falciparum K1” value in data set [1] (setting [7]) is 0.007 µg/mL. In addition, the “EC50 Trypanosoma brucei rhod.” value in data set [3] was determined as 0.042 µg/mL. Further, in data set [4] (setting [6]), the “EC50 Leishmania donovani” value is 0.037 µg/mL.
For `CCn1c(=O)/c(=C2\SCCN2C)s/c1=C1\S/C(=N\c2sc3cc(Cl)ccc3[n+]2C)N(C(C)C)C1=O` [Compound B-37], the Selective toxicity in data set [1] is 160; in data set [3], 19. Besides, the concentration for a half-maximal effect (EC50) in data set [1] (setting [5]) worked out at 0.009 µg/mL; in data set [3] it was 0.052 µg/mL. In addition, in data set [2], the EC50 at 72 h was 1.44 µg/mL.
Consider `CCN1C(=O)/C(=C2\Sc3ccccc3N2C)S/C1=N\c1sc2cc(Cl)ccc2[n+]1C` [Compound A-1], for which the Selective toxicity amounted to 255 in data set [1], 94 in data set [3] and 299 in data set [4]. The EC50 in data set [1] (setting [5]) was determined as 0.148 µg/mL; in data set [3] it was 0.403 µg/mL; in data set [4] (setting [6]) it was 0.127 µg/mL. Further, the EC50 at 72 h in data set [2] stood at 37.9 µg/mL.
As for `CCN1C(=O)/C(=c2/s/c(=C3/C=CC=CN3C)c(=O)n2CC)S/C1=N\c1sc2ccccc2[n+]1C` [Compound B-30], the “EC50 P. falciparum K1” value in data set [1] (setting [7]) came out at 0.0119 µg/mL. In data set [3], the “EC50 Trypanosoma brucei rhod.” value was determined as 0.0625 µg/mL. In data set [4] (setting [6]), the “EC50 Leishmania donovani” value is 0.11 µg/mL.
